Test results as given in patent US12558428B2, “Heterobifunctional compounds and their use in treating disease” (Halda Therapeutics OpCo, Inc., priority 2024, dated 2026).

system: T-Rex 293 cells having increased expression of estrogen receptor alpha protein; assay: Cellular growth inhibition assay, T-Rex 293 cells, (+) doxycycline; type: cell-based; settings: T-REx-293, 72 h, Table 7-A; T-Rex 293 cells with doxycycline (increased ERα expression); 72 hours; CellTiter-Glo; read-out: (+) Dox GI50
Summary of the method: (§1)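 Cells of an inducible ERα-expressing T-Rex 293 clone are seeded in charcoal-dextran FBS medium with or without 3 ng/mL doxycycline, then treated after 24 h with compound dilutions (0.5% DMSO) for 72 h. Growth inhibition is measured by CellTiter-Glo luminescence and expressed as GI50.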

Row | Structure (SMILES) | GI50 [nM]
1 | Cc1sc2c(c1C)C(c1ccc(N3CC(F)(CN4CCC(CC5CN(c6ccc([C@@H]7c8ccc(O)cc8CC[C@@H]7c7ccccc7)cc6)C5)CC4)C3)cc1)=N[C@@H](C)c1nnc(C)n1-2 [III-157] | < 50
2 | Cc1sc2c(c1C)C(c1ccc(N3CC(CC4(O)CCN(c5ccc([C@@H]6c7ccc(O)cc7CC[C@@H]6c6ccccc6)cc5)CC4)C3)cc1)=N[C@@H](C)c1nnc(C)n1-2 [III-158] | < 50
3 | Cc1sc2c(c1C)C(c1ccc(N3CC(O)(CC4CCN(c5ccc([C@@H]6c7ccc(O)cc7CC[C@@H]6c6ccccc6)cc5)CC4)C3)cc1)=N[C@@H](C)c1nnc(C)n1-2 [III-159] | < 50
4 | Cc1sc2c(c1C)C(c1ccc(N3CC(CN4CCN(C(=O)C5CN(c6ccc([C@@H]7c8ccc(O)cc8CC[C@@H]7c7ccccc7)cc6)C5)CC4)C3)cc1)=N[C@@H](C)c1nnc(C)n1-2 [III-160] | < 50
5 | Cc1sc2c(c1C)C(c1ccc(N3CC4(CCN(CC5CCN(c6ccc([C@@H]7c8ccc(O)cc8CC[C@@H]7c7ccccc7)cc6)CC5)CC4)C3)cc1)=N[C@@H](Cc1ncco1)c1nnc(C)n1-2 [III-161] | < 50
6 | Cc1sc2c(c1C)C(c1ccc(N3CC(CN4CCN(CC5CN(c6ccc([C@@H]7c8ccc(O)cc8CC[C@@H]7c7ccccc7)cc6)C5)CC4)C3)cc1)=N[C@@H](Cc1ncco1)c1nnc(C)n1-2 [III-162] | < 50
7 | Cc1sc2c(c1C)C(c1ccc(N3CCC(CC4(O)CCN(c5ccc([C@@H]6c7ccc(O)cc7CC[C@@H]6c6ccccc6)cc5)CC4)CC3)cc1)=N[C@H](Cc1ncco1)c1nnc(C)n1-2 [III-163] | > 2500
8 | Cc1sc2c(c1C)C(c1ccc(N3CCC(CC4(O)CCN(c5ccc([C@@H]6c7ccc(O)cc7CC[C@@H]6c6ccccc6)cc5)CC4)CC3)cc1)=N[C@@H](Cc1ncco1)c1nnc(C)n1-2 [III-164] | < 50
9 | Cc1sc2c(c1C)C(c1ccc(N3CC(C(=O)N4CCN(CC5CN(c6ccc([C@@H]7c8ccc(O)cc8CC[C@@H]7c7ccccc7)cc6)C5)CC4)C3)cc1)=N[C@@H](C)c1nnc(C)n1-2 [III-165] | < 50
10 | Cc1sc2c(c1C)C(c1ccc(N3CC(CN4CCN(CC5(O)CN(c6ccc([C@@H]7c8ccc(O)cc8CC[C@@H]7c7ccccc7)cc6)C5)CC4)C3)cc1)=N[C@@H](C)c1nnc(C)n1-2 [III-166] | < 50
11 | CC1=C(C)C2C(c3ccc(N4CC(O)(CC5CCN(c6ccc([C@@H]7c8ccc(O)cc8CC[C@@H]7c7ccccc7)cc6)CC5)C4)cc3)=N[C@@H](Cc3ncco3)c3nnc(C)n3C2S1 (stereo partly drawn) [III-167] | < 50
12 | Cc1sc2c(c1C)C(c1ccc(N3CC(C(=O)N4CCN(CC5CN(c6ccc([C@@H]7c8ccc(O)cc8CC[C@@H]7c7ccccc7)cc6)C5)CC4)C3)cc1)=N[C@@H](Cc1ncco1)c1nnc(C)n1-2 [III-168] | < 50
13 | Cc1sc2c(c1C)C(c1ccc(C3CN(CC4(O)CCN(CC5CN(c6ccc([C@@H]7c8ccc(O)cc8CC[C@@H]7c7ccccc7)cc6)C5)CC4)C3)cc1)=N[C@@H](Cc1ncco1)c1nnc(C)n1-2 [III-169] | < 50
14 | Cc1sc2c(c1C)C(c1ccc(N3CCC(C(=O)N4CC(c5ccc([C@@H]6c7ccc(O)cc7CC[C@@H]6c6ccccc6)cc5)C4)CC3)cc1)=N[C@@H](C)c1nnc(C)n1-2 [III-170] | < 50
15 | Cc1sc2c(c1C)C(c1ccc(C3CN(CC4(O)CCN(C(=O)C5CN(c6ccc([C@@H]7c8ccc(O)cc8CC[C@@H]7c7ccccc7)cc6)C5)CC4)C3)cc1)=N[C@@H](C)c1nnc(C)n1-2 [III-171] | < 50
16 | Cc1sc2c(c1C)C(c1ccc(C3CN(C(=O)C4CCN(CC5CN(c6ccc([C@@H]7c8ccc(O)cc8CC[C@@H]7c7ccccc7)cc6)C5)CC4)C3)cc1)=N[C@@H](C)c1nnc(C)n1-2 [III-172] | < 50

system: T-Rex 293 cells lacking increased expression of estrogen receptor alpha protein; assay: Cellular growth inhibition assay, T-Rex 293 cells, (−) doxycycline; type: cell-based; settings: T-REx-293, 72 h, Table 7-A; T-Rex 293 cells without doxycycline (lacking increased ERα expression); 72 hours; CellTiter-Glo; read-out: (−) Dox GI50
Summary of the method: as §1

Row | Structure (SMILES) | GI50 [nM]
17 | Cc1sc2c(c1C)C(c1ccc(N3CC(F)(CN4CCC(CC5CN(c6ccc([C@@H]7c8ccc(O)cc8CC[C@@H]7c7ccccc7)cc6)C5)CC4)C3)cc1)=N[C@@H](C)c1nnc(C)n1-2 [III-157] | 500 to 2500
18 | Cc1sc2c(c1C)C(c1ccc(N3CC(CC4(O)CCN(c5ccc([C@@H]6c7ccc(O)cc7CC[C@@H]6c6ccccc6)cc5)CC4)C3)cc1)=N[C@@H](C)c1nnc(C)n1-2 [III-158] | 50 to 500
19 | Cc1sc2c(c1C)C(c1ccc(N3CC(O)(CC4CCN(c5ccc([C@@H]6c7ccc(O)cc7CC[C@@H]6c6ccccc6)cc5)CC4)C3)cc1)=N[C@@H](C)c1nnc(C)n1-2 [III-159] | < 50
20 | Cc1sc2c(c1C)C(c1ccc(N3CC(CN4CCN(C(=O)C5CN(c6ccc([C@@H]7c8ccc(O)cc8CC[C@@H]7c7ccccc7)cc6)C5)CC4)C3)cc1)=N[C@@H](C)c1nnc(C)n1-2 [III-160] | 50 to 500
21 | Cc1sc2c(c1C)C(c1ccc(N3CC4(CCN(CC5CCN(c6ccc([C@@H]7c8ccc(O)cc8CC[C@@H]7c7ccccc7)cc6)CC5)CC4)C3)cc1)=N[C@@H](Cc1ncco1)c1nnc(C)n1-2 [III-161] | 50 to 500
22 | Cc1sc2c(c1C)C(c1ccc(N3CC(CN4CCN(CC5CN(c6ccc([C@@H]7c8ccc(O)cc8CC[C@@H]7c7ccccc7)cc6)C5)CC4)C3)cc1)=N[C@@H](Cc1ncco1)c1nnc(C)n1-2 [III-162] | 50 to 500
23 | Cc1sc2c(c1C)C(c1ccc(N3CCC(CC4(O)CCN(c5ccc([C@@H]6c7ccc(O)cc7CC[C@@H]6c6ccccc6)cc5)CC4)CC3)cc1)=N[C@H](Cc1ncco1)c1nnc(C)n1-2 [III-163] | > 2500
24 | Cc1sc2c(c1C)C(c1ccc(N3CCC(CC4(O)CCN(c5ccc([C@@H]6c7ccc(O)cc7CC[C@@H]6c6ccccc6)cc5)CC4)CC3)cc1)=N[C@@H](Cc1ncco1)c1nnc(C)n1-2 [III-164] | 50 to 500
25 | Cc1sc2c(c1C)C(c1ccc(N3CC(C(=O)N4CCN(CC5CN(c6ccc([C@@H]7c8ccc(O)cc8CC[C@@H]7c7ccccc7)cc6)C5)CC4)C3)cc1)=N[C@@H](C)c1nnc(C)n1-2 [III-165] | 50 to 500
26 | Cc1sc2c(c1C)C(c1ccc(N3CC(CN4CCN(CC5(O)CN(c6ccc([C@@H]7c8ccc(O)cc8CC[C@@H]7c7ccccc7)cc6)C5)CC4)C3)cc1)=N[C@@H](C)c1nnc(C)n1-2 [III-166] | 50 to 500
27 | CC1=C(C)C2C(c3ccc(N4CC(O)(CC5CCN(c6ccc([C@@H]7c8ccc(O)cc8CC[C@@H]7c7ccccc7)cc6)CC5)C4)cc3)=N[C@@H](Cc3ncco3)c3nnc(C)n3C2S1 (stereo partly drawn) [III-167] | 50 to 500
28 | Cc1sc2c(c1C)C(c1ccc(N3CC(C(=O)N4CCN(CC5CN(c6ccc([C@@H]7c8ccc(O)cc8CC[C@@H]7c7ccccc7)cc6)C5)CC4)C3)cc1)=N[C@@H](Cc1ncco1)c1nnc(C)n1-2 [III-168] | 50 to 500
29 | Cc1sc2c(c1C)C(c1ccc(C3CN(CC4(O)CCN(CC5CN(c6ccc([C@@H]7c8ccc(O)cc8CC[C@@H]7c7ccccc7)cc6)C5)CC4)C3)cc1)=N[C@@H](Cc1ncco1)c1nnc(C)n1-2 [III-169] | 50 to 500
30 | Cc1sc2c(c1C)C(c1ccc(N3CCC(C(=O)N4CC(c5ccc([C@@H]6c7ccc(O)cc7CC[C@@H]6c6ccccc6)cc5)C4)CC3)cc1)=N[C@@H](C)c1nnc(C)n1-2 [III-170] | 50 to 500
31 | Cc1sc2c(c1C)C(c1ccc(C3CN(CC4(O)CCN(C(=O)C5CN(c6ccc([C@@H]7c8ccc(O)cc8CC[C@@H]7c7ccccc7)cc6)C5)CC4)C3)cc1)=N[C@@H](C)c1nnc(C)n1-2 [III-171] | 50 to 500
32 | Cc1sc2c(c1C)C(c1ccc(C3CN(C(=O)C4CCN(CC5CN(c6ccc([C@@H]7c8ccc(O)cc8CC[C@@H]7c7ccccc7)cc6)C5)CC4)C3)cc1)=N[C@@H](C)c1nnc(C)n1-2 [III-172] | 50 to 500

system: MCF7 cells (ATCC #HTB-22); assay: Cellular growth inhibition assay, MCF7 cells purchased from ATCC; type: cell-based; settings: Homo sapiens, MCF7, 144 h, Table 8-A; MCF7 cells purchased from ATCC; six days; CellTiter-Glo; read-out: GI50
Summary of the method: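 GI50 values come from a four-parameter fit of CellTiter-Glo 2.0 luminescence after six days of compound exposure at 37° C. Seeding density depended on the source: 225 cells/well for ECACC MCF7, 1,500 for ATCC. Medium was RPMI 1640 with 10% FBS and 0.2 U/ml insulin.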

Row | Structure (SMILES) | GI50 [nM]
33 | Cc1sc2c(c1C)C(c1ccc(N3CC(F)(CN4CCC(CC5CN(c6ccc([C@@H]7c8ccc(O)cc8CC[C@@H]7c7ccccc7)cc6)C5)CC4)C3)cc1)=N[C@@H](C)c1nnc(C)n1-2 [III-157] | 50 to 500
34 | Cc1sc2c(c1C)C(c1ccc(N3CC(CC4(O)CCN(c5ccc([C@@H]6c7ccc(O)cc7CC[C@@H]6c6ccccc6)cc5)CC4)C3)cc1)=N[C@@H](C)c1nnc(C)n1-2 [III-158] | < 50
35 | Cc1sc2c(c1C)C(c1ccc(N3CC(O)(CC4CCN(c5ccc([C@@H]6c7ccc(O)cc7CC[C@@H]6c6ccccc6)cc5)CC4)C3)cc1)=N[C@@H](C)c1nnc(C)n1-2 [III-159] | < 50
36 | Cc1sc2c(c1C)C(c1ccc(N3CC(CN4CCN(C(=O)C5CN(c6ccc([C@@H]7c8ccc(O)cc8CC[C@@H]7c7ccccc7)cc6)C5)CC4)C3)cc1)=N[C@@H](C)c1nnc(C)n1-2 [III-160] | < 50
37 | Cc1sc2c(c1C)C(c1ccc(N3CC4(CCN(CC5CCN(c6ccc([C@@H]7c8ccc(O)cc8CC[C@@H]7c7ccccc7)cc6)CC5)CC4)C3)cc1)=N[C@@H](Cc1ncco1)c1nnc(C)n1-2 [III-161] | < 50
38 | Cc1sc2c(c1C)C(c1ccc(N3CC(CN4CCN(CC5CN(c6ccc([C@@H]7c8ccc(O)cc8CC[C@@H]7c7ccccc7)cc6)C5)CC4)C3)cc1)=N[C@@H](Cc1ncco1)c1nnc(C)n1-2 [III-162] | < 50
39 | Cc1sc2c(c1C)C(c1ccc(N3CCC(CC4(O)CCN(c5ccc([C@@H]6c7ccc(O)cc7CC[C@@H]6c6ccccc6)cc5)CC4)CC3)cc1)=N[C@H](Cc1ncco1)c1nnc(C)n1-2 [III-163] | 50 to 500
40 | Cc1sc2c(c1C)C(c1ccc(N3CCC(CC4(O)CCN(c5ccc([C@@H]6c7ccc(O)cc7CC[C@@H]6c6ccccc6)cc5)CC4)CC3)cc1)=N[C@@H](Cc1ncco1)c1nnc(C)n1-2 [III-164] | < 50
41 | Cc1sc2c(c1C)C(c1ccc(N3CC(C(=O)N4CCN(CC5CN(c6ccc([C@@H]7c8ccc(O)cc8CC[C@@H]7c7ccccc7)cc6)C5)CC4)C3)cc1)=N[C@@H](C)c1nnc(C)n1-2 [III-165] | < 50
42 | Cc1sc2c(c1C)C(c1ccc(N3CC(CN4CCN(CC5(O)CN(c6ccc([C@@H]7c8ccc(O)cc8CC[C@@H]7c7ccccc7)cc6)C5)CC4)C3)cc1)=N[C@@H](C)c1nnc(C)n1-2 [III-166] | 50 to 500
43 | CC1=C(C)C2C(c3ccc(N4CC(O)(CC5CCN(c6ccc([C@@H]7c8ccc(O)cc8CC[C@@H]7c7ccccc7)cc6)CC5)C4)cc3)=N[C@@H](Cc3ncco3)c3nnc(C)n3C2S1 (stereo partly drawn) [III-167] | < 50
44 | Cc1sc2c(c1C)C(c1ccc(N3CC(C(=O)N4CCN(CC5CN(c6ccc([C@@H]7c8ccc(O)cc8CC[C@@H]7c7ccccc7)cc6)C5)CC4)C3)cc1)=N[C@@H](Cc1ncco1)c1nnc(C)n1-2 [III-168] | < 50
45 | Cc1sc2c(c1C)C(c1ccc(C3CN(CC4(O)CCN(CC5CN(c6ccc([C@@H]7c8ccc(O)cc8CC[C@@H]7c7ccccc7)cc6)C5)CC4)C3)cc1)=N[C@@H](Cc1ncco1)c1nnc(C)n1-2 [III-169] | 50 to 500
46 | Cc1sc2c(c1C)C(c1ccc(N3CCC(C(=O)N4CC(c5ccc([C@@H]6c7ccc(O)cc7CC[C@@H]6c6ccccc6)cc5)C4)CC3)cc1)=N[C@@H](C)c1nnc(C)n1-2 [III-170] | 50 to 500
47 | Cc1sc2c(c1C)C(c1ccc(C3CN(CC4(O)CCN(C(=O)C5CN(c6ccc([C@@H]7c8ccc(O)cc8CC[C@@H]7c7ccccc7)cc6)C5)CC4)C3)cc1)=N[C@@H](C)c1nnc(C)n1-2 [III-171] | 50 to 500
48 | Cc1sc2c(c1C)C(c1ccc(C3CN(C(=O)C4CCN(CC5CN(c6ccc([C@@H]7c8ccc(O)cc8CC[C@@H]7c7ccccc7)cc6)C5)CC4)C3)cc1)=N[C@@H](C)c1nnc(C)n1-2 [III-172] | 50 to 500
